Read-outs that look alike come from different tables or passages of the source.

The values below come from US20230248845A1, “COMBINATION OF AN ANTIBODY-DRUG CONJUGATE AND AN ANTIBODY-SAPONIN CONJUGATE” (SAPREME TECHNOLOGIES B.V., priority 2020, published 2023).

What all share (assay): Cell viability assay (MTS), targeted protein toxin mediated cell killing
Format in all cases: cell-based, human

The test system of assay [1] is MDA-MB-468 cells (HER2^−). As to conditions: FIG. 9B. On the procedure: (§1) After treatment the cells were incubated for 72 hr at 37° C. before the cell viability was determined by a MTS-assay, performed according to the manufacturer's instruction (CellTiter 96® AQueous One Solution Cell Proliferation Assay, Promega). Briefly, the MTS solution was diluted 20× in DMEM without phenol red (PAN-Biotech GmbH) supplemented with 10% FBS. The cells were washed once with 200 μL/PBS well, after which 100 μL diluted MTS solution was added/well. The plate was incubated for approximately 20-30 minutes at 37° C. Subsequently, the OD at 492 nm was measured on a Thermo Scientific Multiskan FC plate reader (Thermo Scientific). For quantification the background signal of ‘medium only’ wells was subtracted from all other wells, before the cell viability percentage of treated/untreated cells was calculated, by dividing the background corrected signal of treated wells over the background corrected signal of the untreated wells (×100).

For the next assay, the system named is SK-BR-3 cells (HER2^++). The method, then: as §1
The next assay concerns A2058 cells (EGFR^−). The settings on record: FIG. 8B. The method, then: as §1
Another assay deals with A431 cells (EGFR^++). The method, then: as §1
[2] abbreviates: SO1861 titrated on 10 pM CD71mab-saporin.
The mark [3] stands for this setting: SO1861 titrated on 10 pM Pertuzumab-saporin.
Where [4] appears, read: SO1861 titrated on 10 pM cetuximab-saporin.
The mark [5] stands for this setting: SO1861 titrated on 10 pM matuzumab-dianthin.
The mark [6] stands for this setting: SO1861 titrated on 50 pM Pertuzumab-saporin.
[7] abbreviates: SO1861 titrated on 50 pM trastuzumab-saporin.
Setting [8] is: substance alone, equivalent concentrations, FIG. 2A.

For `CC(=O)O[C@H]1[C@H](O[C@@H]2OC[C@@H](O)[C@H](O)[C@H]2O)[C@@H](O)[C@H](O[C@@H]2[C@H](O)[C@@H](O[C@@H]3O[C@@H](C)[C@H](O[C@@H]4OC[C@@H](O)[C@H](O[C@@H]5O[C@H](CO)[C@@H](O)[C@H](O)[C@H]5O)[C@H]4O)[C@@H](O)[C@H]3O)[C@H](OC(=O)[C@]34CCC(C)(C)C[C@H]3C3=CC[C@@H]5[C@@]6(C)CC[C@H](O[C@@H]7O[C@H](C(=O)O)[C@@H](O)[C@H](O[C@@H]8OC[C@@H](O)[C@H](O)[C@H]8O)[C@H]7O[C@@H]7O[C@H](CO)[C@H](O)[C@H](O)[C@H]7O)[C@@](C)(C=O)[C@@H]6CC[C@@]5(C)[C@]3(C)C[C@H]4O)O[C@@H]2C)O[C@@H]1C` [SO1861], the IC50 is 200 nM in assay [1] (setting [2]); greater than 1000 nM in assay [1] (setting [3]); 200 nM in assay [1] (setting [4]); 200 nM in assay [1] (setting [5]); greater than 1000 nM in assay [1] (setting [6]); greater than 1000 nM in assay [1] (setting [7]). In addition, the IC50 was found to be 200 nM in the assay on SK-BR-3 cells (HER2^++) (SO1861 titrated on 10 pM CD71-saporin, FIG. 9A, read-out: SO1861 IC50 cell killing); 200 nM in the assay on SK-BR-3 cells (HER2^++) (SO1861 titrated on 10 pM Pertuzumab-saporin, FIG. 9A, read-out: SO1861 IC50 cell killing); 200 nM in the assay on SK-BR-3 cells (HER2^++) (SO1861 titrated on 10 pM cetuximab-saporin, FIG. 9A, read-out: SO1861 IC50 cell killing); 200 nM in the assay with SK-BR-3 cells (HER2^++) (SO1861 titrated on 10 pM matuzumab-dianthin, FIG. 9A, read-out: SO1861 IC50 cell killing); 200 nM in the assay with SK-BR-3 cells (HER2^++) (SO1861 titrated on 50 pM Pertuzumab-saporin, FIG. 9A, read-out: SO1861 IC50 cell killing); 200 nM in the assay on SK-BR-3 cells (HER2^++) (SO1861 titrated on 50 pM trastuzumab-saporin, FIG. 9A, read-out: SO1861 IC50 cell killing). Besides, the IC50 in the assay on A2058 cells (EGFR^−) (setting [2]) turned out to be 200 nM; with A2058 cells (EGFR^−) (setting [3]) it was 200 nM; with A2058 cells (EGFR^−) (setting [6]), 200 nM; with A2058 cells (EGFR^−) (setting [7]), 200 nM; in the assay on A431 cells (EGFR^++) (SO1861 titrated on 10 pM CD71-saporin, FIG. 8A, read-out: SO1861 IC50 cell killing) it was 200 nM; with A431 cells (EGFR^++) (SO1861 titrated on 10 pM cetuximab-saporin, FIG. 8A, read-out: SO1861 IC50 cell killing), 200 nM. Moreover, the IC50 in the assay with A431 cells (EGFR^++) (SO1861 titrated on 10 pM matuzumab-dianthin, FIG. 8A, read-out: SO1861 IC50 cell killing) was determined as 200 nM; in the assay with A431 cells (EGFR^++) (SO1861 titrated on 10 pM pertuzumab-saporin, FIG. 8A, read-out: SO1861 IC50 cell killing) it was 300 nM; with A431 cells (EGFR^++) (SO1861 titrated on 50 pM pertuzumab-saporin, FIG. 8A, read-out: SO1861 IC50 cell killing) it was 200 nM; in the assay on A431 cells (EGFR^++) (SO1861 titrated on 50 pM trastuzumab, FIG. 8A, read-out: SO1861 IC50 cell killing), 250 nM. Besides, the cell killing activity result in the assay on A2058 cells (EGFR^−) (setting [4]) and in the assay on A2058 cells (EGFR^−) (setting [5]) was “not active” each time.
In the case of “matuzumab-SO1861: SO1861-EMCH conjugated via cysteine residues (Cys) to matuzumab, with a DAR 3,3”, the IC50 in the assay on A431 cells (EGFR^++) (substance titrated on fixed 10 pM EGFdianthin, FIG. 6A, read-out: IC50 cell killing) was 2 nM; with A431 cells (EGFR^++) (substance titrated on fixed 10 pM cetuximab-saporin, FIG. 6A, read-out: IC50 cell killing) it was 2 nM.
As to “pertuzumab-(Cys-L-SO1861)^4: SO1861-EMCH conjugated via cysteine residues (Cys) to pertuzumab, with a DAR 4”, the cell killing activity entry with SK-BR-3 cells (HER2^++) (setting [8]) is “could not induce any cell killing activity”. The IC50 with SK-BR-3 cells (HER2^++) (substance titrated on fixed 50 pM trastuzumab-saporin, FIG. 2A, read-out: IC50 cell killing) stood at 0.5 nM. For the same compound, the “cell killing activity at higher concentrations” value with SK-BR-3 cells (HER2^++) (titrated on fixed 50 pM pertuzumab-dianthin, higher concentrations) is “cell killing activity was reduced”.
Take “pertuzumab: monoclonal antibody binding human HER2”: the cell killing activity entry is listed as “could not induce any cell killing activity” in the assay with SK-BR-3 cells (HER2^++) (equivalent concentrations + 50 pM trastuzumab-saporin, FIG. 2A) and “could not induce any cell killing activity” in the assay with SK-BR-3 cells (HER2^++) (setting [8]).

By IC50 is commonly meant the point on the concentration scale where inhibition reaches its midpoint.
